± gives the standard deviation of the averaged measurements.
Columns and labels:
Conditions in all cases: 72 h
[1] = system: Caco-2; test: drug sensitivity score (DSS) for viability; higher = more toxic; extreme values may be limits of the assay
[2] = system: HepG2; test: as above
[3] = system: Vero E6; test: as above
[4] = system: U2OS; test: as above
[5] = system: Calu-3; test: as above
[6] = system: Caco-2; test: cell viability relative to DMSO; higher = less toxic
[7] = system: HepG2; test: as above
[8] = system: Vero E6; test: as above
[9] = system: U2OS; test: as above
[10] = system: Calu-3; test: as above
[11] = system: Caco-2; test: relative viability EC50 (midpoint between 100% and the lowest measured viability); higher = less toxic
[12] = system: HepG2; test: as above
[13] = system: Vero E6; test: as above
[14] = system: U2OS; test: as above
[15] = system: Calu-3; test: as above

Row | Structure (SMILES) | drug sensitivity score [1] | drug sensitivity score [2] | drug sensitivity score [3] | drug sensitivity score [4] | drug sensitivity score [5] | cell viability ([6]; 1 nM) [%] | cell viability ([6]; 10 nM) [%] | cell viability ([6]; 100 nM) [%] | cell viability ([6]; 1000 nM) [%] | cell viability ([6]; 10000 nM) [%] | cell viability ([7]; 1 nM) [%] | cell viability ([7]; 10 nM) [%] | cell viability ([7]; 100 nM) [%] | cell viability ([7]; 1000 nM) [%] | cell viability ([7]; 10000 nM) [%] | cell viability ([8]; 1 nM) [%] | cell viability ([8]; 10 nM) [%] | cell viability ([8]; 100 nM) [%] | cell viability ([8]; 1000 nM) [%] | cell viability ([8]; 10000 nM) [%] | cell viability ([9]; 1 nM) [%] | cell viability ([9]; 10 nM) [%] | cell viability ([9]; 100 nM) [%] | cell viability ([9]; 1000 nM) [%] | cell viability ([9]; 10000 nM) [%] | cell viability ([10]; 1 nM) [%] | cell viability ([10]; 10 nM) [%] | cell viability ([10]; 100 nM) [%] | cell viability ([10]; 1000 nM) [%] | cell viability ([10]; 10000 nM) [%] | relative viability EC50 [11] [µM] | relative viability EC50 [12] [µM] | relative viability EC50 [13] [µM] | relative viability EC50 [14] [µM] | relative viability EC50 [15] [µM]
1 | N=C(N)S/C=C\C(=O)O [ZAPA] | 0 | 0 | 0 | 0 | 0 | 91.1 | 96 | 91.3 | 104 | 106 | 96 | 95.5 | 104 | 89.3 | 102 | 98.3 | 97.1 | 94.8 | 95 | 106 | 92.8 | 97.7 | 95.6 | 100 | 101 | 83 | 103 | 101 | 103 | 95.5 | > 10 | > 10 | > 10 | > 10 | > 10
2 | Cc1c(F)cc(C(=O)NC2CC2)cc1-c1ccc(C(=O)NCC(C)(C)C)cn1 [losmapimod] | 2.4 | 0 | 1.3 | 0 | 2.1 | 97 | 90.8 | 90.8 | 83.4 | 80.6 | 97.9 | 99.8 | 105 | 103 | 87.3 | 95.8 | 101 | 92.8 | 88.7 | 80.5 | 102 | 96.5 | 97.2 | 90.3 | 92.5 | 110 | 94.4 | 90.5 | 84 | 87.7 | > 10 | > 10 | > 10 | > 10 | > 10
3 | Cc1nn(C)c2c1C(c1cccc(Cl)c1)=NCCN2 [zometapine] | 0 | 0 | 0 | 0 | 0 | 95.7 | 86.7 | 82.4 | 117 | 105 | 93.3 | 105 | 99.9 | 106 | 89 | 104 | 105 | 98 | 97.8 | 95.1 | 95.6 | 105 | 98.4 | 102 | 96.9 | 102 | 104 | 99.8 | 101 | 98.2 | > 10 | > 10 | > 10 | > 10 | > 10
4 | CC1(C)S[C@@H]2[C@H](NC(=O)[C@H](NC(=O)N3CCNC3=O)c3ccccc3)C(=O)N2[C@H]1C(=O)O [azlocillin] | 0 | 0 | 0 | 0 | 0 | 105 | 93 | 91.3 | 98.8 | 98.1 | 99.1 | 88.5 | 99.3 | 93.9 | 88 | 95.7 | 96.8 | 96.9 | 94.2 | 98 | 96.6 | 100 | 93.6 | 95 | 98.6 | 97.1 | 100 | 93 | 98.7 | 105 | > 10 | > 10 | > 10 | > 10 | > 10
5 | CCc1cnn2c(NCc3ccc[n+]([O-])c3)cc(N3CCCC[C@H]3CCO)nc12 [dinaciclib] | 28.2 | 34.5 | 27.5 | 35.2 | 21.6 | 100 | 77.9 | 19.9 | 25.1 | 30.8 | 99.9 | 55.6 | 5.7 | 6.4 | 6.4 | 101 | 100 | 14.8 | 7 | 4.5 | 99.3 | 56 | 3.6 | 4 | 5.4 | 103 | 83.2 | 39.9 | 39.3 | 39.6 | 0.0147 | 0.0105 | 0.044 | 0.0107 | 0.0147
6 | NC[C@H]1O[C@H](O[C@H]2[C@H](O[C@@H]3O[C@H](CO)[C@@H](O)[C@H]3O)[C@@H](O)[C@H](N)C[C@@H]2N)[C@H](N)[C@@H](O)[C@@H]1O [ribostamycin-sulfate] | 0.9 ± 1.3 | 0.05 ± 0.071 | 0 | 0 | 0 | 94.5 ± 5 | 97.1 ± 2.4 | 87.5 ± 12 | 93 ± 2 | 88.5 ± 9.1 | 99.2 ± 0.85 | 106.8 ± 0.21 | 97 ± 5.2 | 102 ± 4.5 | 93.6 ± 8.2 | 103 ± 8.4 | 94 ± 5.7 | 100 ± 4.7 | 97.2 ± 2.3 | 102 ± 2.2 | 96.8 ± 1.1 | 98.8 ± 2.2 | 96.3 ± 2.3 | 101 ± 4.4 | 98.5 ± 1.5 | 93.8 ± 8.4 | 97.7 ± 13 | 90.5 ± 5 | 104 ± 9.5 | 89.6 ± 0.99 | > 10 | > 10 | > 10 | > 10 | > 10
7 | CC(C)(C)NS(=O)(=O)c1cncc(-c2cc(F)c3nc(N)nn3c2)c1 | 0 | 0 | 0 | 0 | 0 | 95.6 | 91.8 | 106 | 87.7 | 107 | 94.7 | 106 | 90.7 | 101 | 105 | 93.5 | 99.3 | 94 | 96.3 | 100 | 98.5 | 92.5 | 97.9 | 95.8 | 95.9 | 96.1 | 82.5 | 95.2 | 84.2 | 97.1 | > 10 | > 10 | > 10 | > 10 | > 10
